Patent publication EP0089901A1, “New 2-oxo-1-pyrrolidineacetic acid esters, their methods of production and therapeutic compositions containing the same” (PRODES S.A., priority 1982, dated 1983)

What was measured:
[1] = tested on: anesthetized dogs; experiment: Electromagnetic blood flow measurement (vertebral/cerebral blood flow); type: in vivo; settings: vertebral blood flow
Method: After orotraqueal intubation, artificial respiration with normal air was instituted using a Manley Pulmovent respirator. The correct ventilation of the dogs was checked after all the surgical procedures by determining the p02, pC02, and pH in arterial blood samples, as well as several times during the experiment by means of an Astrup apparatus. Blood pressure was measured in left saphenous artery by means of a Bell & Howell pressure transducer, and the heart rate by means of a Beckman ECG device. Recordings were made on an ink-writing Beckman polygraph. Left saphenous vein and right saphenous artery were cannulated with polyethylene catheters for drug administration and blood collection respectively.
Vertebral blood flow was measured by a non-cannulating electro-magnetic flowmeter (Carolina Medical Electronics) placed in the vertebral artery.
The Carolina digital flowmeter was connected to an Omniscribe Houston Instruments plotter.
Piracetam and nicotinic acid were used as control drugs.

[2] = tested on: animals; experiment: Unspecific protection against lethality: hypoxia-hypobara (decompression), survival time; type: in vivo; settings: survival time under decompression
Source text: We have chosen the hypoxia-hypobara : the decompression kills the animals, because of the lack of 02.

[3] = tested on: mouse; experiment: Unspecific protection against lethality: gasping time after quick decapitation; type: in vivo; settings: gasping time after decapitation of mouse
Source text: The second trial is the quick decapitation of mouse. The head has a typical mandibular movement, known as gasping, as searching the breathing air.

[4] = tested on: animals; experiment: Unspecific protection against lethality: anoxia by CNK, survival time; type: in vivo; settings: survival time after CNK
[5] = LD50 of representative compounds; settings: in vivo
Source text: LD50 of representative compounds included in Table III.

Compound	EFFECT ([1]; DOSE 0.5 mg/kg)	EFFECT ([1]; no dose given)	HYPOXIA HYPOBARA ([2]; DOSE 500mg/kg)	GASPING ([3]; DOSE 500mg/kg)	ANOXIA BY CNK ([4]; DOSE 500mg/kg)	LD50 [5] [mg/kg]	further results
COc1ccc(Cc2nccc3cc(OC)c(OC)cc23)cc1OC [Papaverine]	Active						
NC(=O)CN1CCCC1=O [Piracetam, 2-oxo-1-pyrrolidineacetamide, reference compound]		No effect					HYPOXIA HYPOBARA ([2]; DOSE 1000mg/kg): No effect; GASPING ([3]; DOSE 1000mg/kg): No effect; ANOXIA BY CNK ([4]; DOSE 1000mg/kg): No effect
CCC(C(=O)OC1CC(C)CC(C)(C)C1)N1CCCC1=O (stereo not drawn) [cis 3,3,5-trimethylcyclohexyl 2-(2-oxo-l-pyrrolidinyl)butyrate]	Active		Active	Very active	Very active	2850	
O=C1NC(=O)C(c2ccccc2)(c2ccccc2)N1 [Difenilhydantoine, reference compound]							HYPOXIA HYPOBARA ([2]; DOSE 100mg/kg): Active; GASPING ([3]; DOSE 100mg/kg): Very active; ANOXIA BY CNK ([4]; DOSE 100mg/kg): Active
O=C(O)c1cccnc1 [Nicotinic acid]		No effect					
CC1CC(OC(=O)CN2CCCC2=O)CC(C)(C)C1 (mixture of isomers) [cis/trans 3,3,5-trimethylcyclohexyl 2-oxo-l-pyrrolidineacetate]			Active	Very active	Very active	3170	EFFECT ([1]; DOSE 1 mg/kg): Active
